Assay results published in ChEMBL document CHEMBL6182949 (J Med Chem, 2025).

Assays:
[1] = Metabolic stability in mouse liver microsome assessed as half life at 1 uM measured up to 60 mins in presence of NADPH by LC-MS/MS analysis; format: ADME; conditions: liver microsomes
hERG (KCNH2) [2] = biological target: T1, hERG (KCNH2) (Homo sapiens, UniProt Q12809); assay: Inhibition of hERG expressed in HEK293 cells at 1 uM by manual patch clamp assay relative to control; format: toxicity, cell-based; conditions: HEK293 cells expressing hERG
[3] = Metabolic stability in dog liver microsome assessed as half life at 1 uM measured up to 60 mins in presence of NADPH by LC-MS/MS analysis; format: ADME, Canis lupus familiaris; conditions: liver microsomes
[4] = biological target: T2, Protein cereblon/Interleukin-1 receptor-associated kinase 4 (Homo sapiens, UniProt Q9NWZ3+Q96SW2); assay: PROTAC activity at CRBN/IRAK4 in human THP-1 cells assessed as induction of IRAK4 degradation incubated for 24 hrs by HiBiT lytic reagent based analysis relative to control; format: cell-based
Target sequence in this assay (Q96SW2 whole entry, looked up): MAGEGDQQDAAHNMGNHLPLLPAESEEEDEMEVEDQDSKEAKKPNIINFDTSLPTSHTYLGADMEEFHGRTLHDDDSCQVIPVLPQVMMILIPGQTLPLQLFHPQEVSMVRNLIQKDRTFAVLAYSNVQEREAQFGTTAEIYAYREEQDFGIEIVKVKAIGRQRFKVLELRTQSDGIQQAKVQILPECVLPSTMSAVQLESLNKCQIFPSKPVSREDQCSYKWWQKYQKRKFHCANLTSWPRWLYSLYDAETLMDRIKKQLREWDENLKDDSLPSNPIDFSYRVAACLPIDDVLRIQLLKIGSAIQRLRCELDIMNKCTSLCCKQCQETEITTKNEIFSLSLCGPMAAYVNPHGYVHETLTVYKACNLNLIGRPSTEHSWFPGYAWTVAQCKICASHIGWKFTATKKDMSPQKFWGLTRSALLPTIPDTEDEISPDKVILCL
Target sequence in this assay (Q9NWZ3 whole entry, looked up): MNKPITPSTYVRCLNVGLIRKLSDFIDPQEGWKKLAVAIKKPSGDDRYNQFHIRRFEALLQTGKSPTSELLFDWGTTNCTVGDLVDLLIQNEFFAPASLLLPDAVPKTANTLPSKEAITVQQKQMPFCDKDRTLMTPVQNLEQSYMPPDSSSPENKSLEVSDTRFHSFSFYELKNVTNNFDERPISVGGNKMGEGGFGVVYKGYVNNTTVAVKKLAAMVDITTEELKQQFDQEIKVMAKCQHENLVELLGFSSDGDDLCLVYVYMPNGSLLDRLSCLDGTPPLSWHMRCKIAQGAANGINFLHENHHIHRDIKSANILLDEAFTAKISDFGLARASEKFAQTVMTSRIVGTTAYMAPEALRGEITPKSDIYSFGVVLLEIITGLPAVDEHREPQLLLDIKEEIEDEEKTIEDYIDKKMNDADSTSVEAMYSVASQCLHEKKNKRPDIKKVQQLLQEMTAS

[5] = biological target: T2, Protein cereblon/Interleukin-1 receptor-associated kinase 4; assay: PROTAC activity at CRBN/IRAK4 in human THP-1 cells assessed as induction of IRAK4 degradation incubated for 24 hrs by HiBiT lytic reagent based analysis; format: cell-based
Target sequence in this assay (Q9NWZ3 whole entry): as the sequence (Q9NWZ3 whole entry, looked up) above
Target sequence in this assay (Q96SW2 whole entry): as the sequence (Q96SW2 whole entry, looked up) above

[6] = Metabolic stability in human liver microsome assessed as half life at 1 uM measured up to 60 mins in presence of NADPH by LC-MS/MS analysis; format: ADME; conditions: liver microsomes
[7] = Metabolic stability in cynomolgus monkey liver microsome assessed as half life at 1 uM measured up to 60 mins in presence of NADPH by LC-MS/MS analysis; format: ADME, Macaca fascicularis; conditions: liver microsomes
[8] = Metabolic stability in rat liver microsome assessed as half life at 1 uM measured up to 60 mins in presence of NADPH by LC-MS/MS analysis; format: ADME; conditions: liver microsomes
hERG (KCNH2) [9] = biological target: T1, hERG (KCNH2); assay: Inhibition of hERG expressed in HEK293 cells at 3 uM by manual patch clamp assay relative to control; format: toxicity, cell-based; conditions: HEK293 cells expressing hERG

T1 sequence (Q12809 whole entry): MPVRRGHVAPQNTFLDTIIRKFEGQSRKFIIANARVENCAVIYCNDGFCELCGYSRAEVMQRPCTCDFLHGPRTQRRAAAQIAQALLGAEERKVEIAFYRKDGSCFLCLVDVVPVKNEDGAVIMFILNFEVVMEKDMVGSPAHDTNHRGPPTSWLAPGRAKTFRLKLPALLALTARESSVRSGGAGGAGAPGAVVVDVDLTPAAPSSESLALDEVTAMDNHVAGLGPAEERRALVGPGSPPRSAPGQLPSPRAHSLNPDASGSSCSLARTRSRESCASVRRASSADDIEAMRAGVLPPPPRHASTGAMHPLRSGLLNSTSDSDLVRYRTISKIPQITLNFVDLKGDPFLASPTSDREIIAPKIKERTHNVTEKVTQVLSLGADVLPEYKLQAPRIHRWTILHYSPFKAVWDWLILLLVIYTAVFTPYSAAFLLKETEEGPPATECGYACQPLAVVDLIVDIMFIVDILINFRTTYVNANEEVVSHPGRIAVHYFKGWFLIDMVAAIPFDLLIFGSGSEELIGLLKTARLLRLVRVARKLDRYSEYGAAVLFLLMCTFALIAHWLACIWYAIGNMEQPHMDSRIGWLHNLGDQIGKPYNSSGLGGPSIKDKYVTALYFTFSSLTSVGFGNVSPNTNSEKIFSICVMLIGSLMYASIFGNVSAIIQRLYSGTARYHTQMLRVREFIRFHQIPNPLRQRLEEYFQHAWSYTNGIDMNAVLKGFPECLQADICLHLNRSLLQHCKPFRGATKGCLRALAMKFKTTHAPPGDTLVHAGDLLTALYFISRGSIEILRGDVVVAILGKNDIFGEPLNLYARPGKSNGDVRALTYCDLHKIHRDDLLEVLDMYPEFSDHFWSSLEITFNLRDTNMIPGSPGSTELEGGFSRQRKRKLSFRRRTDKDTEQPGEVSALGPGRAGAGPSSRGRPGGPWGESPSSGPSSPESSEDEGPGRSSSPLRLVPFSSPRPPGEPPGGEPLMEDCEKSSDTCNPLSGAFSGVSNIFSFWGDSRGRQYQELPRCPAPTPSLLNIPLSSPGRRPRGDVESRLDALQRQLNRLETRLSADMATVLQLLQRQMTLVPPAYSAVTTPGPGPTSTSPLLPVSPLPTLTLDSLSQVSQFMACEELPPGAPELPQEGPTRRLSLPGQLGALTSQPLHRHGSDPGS

Row | SMILES | half-life at 1 µM [1] | inhibition at 1 µM (hERG (KCNH2) [2]) | half-life at 1 µM [3] | Emax [4] | DC50 [5] | half-life at 1 µM [6] | half-life at 1 µM [7] | half-life at 1 µM [8] | inhibition at 3 µM (hERG (KCNH2) [9])
1 | Cn1c(=O)n(C2CCC(=O)NC2=O)c2cccc(C#CCO[C@H]3CC[C@@H](CN4CCC5(CC4)Cc4cc(NC(=O)c6coc7cccnc67)c(N6CCC(CO)CC6)cc4O5)CC3)c21 (stereo not given in full) | 123 min | 29% | 58 min | 86% | 3.69 nM | 20 min | – | – | –
2 | CN(CCCO)c1cc2c(cc1NC(=O)c1cnn3cccnc13)CC1(CCN(C[C@H]3CC[C@H](OCC#Cc4cccc5c4n(C)c(=O)n5C4CCC(=O)NC4=O)CC3)CC1)O2 (stereo not given in full) | – | – | – | 68% | 6.92 nM | – | – | – | –
3 | Cn1c(=O)n(C2CCC(=O)NC2=O)c2cccc(C#CCOC3CCN(C(=O)CN4CCC5(CC4)Cc4cc(NC(=O)c6cnn7cccnc67)c(N6CCC(CO)CC6)cc4O5)CC3)c21 (stereo not given) | 21 min | – | 6 min | – | 1.92 nM | 4 min | – | – | –
4 | CN(CCO)c1cc2c(cc1NC(=O)c1cnn3cccnc13)CC1(CCN(C[C@H]3CC[C@H](OCC#Cc4cccc5c4n(C)c(=O)n5C4CCC(=O)NC4=O)CC3)CC1)O2 (stereo not given in full) | – | – | – | 44% | 6.44 nM | – | – | – | –
5 | Cn1c(=O)n(C2CCC(=O)NC2=O)c2cccc(C#CCO[C@H]3CC[C@H](C(=O)N4CCC5(CC4)Cc4cc(NC(=O)c6cnn7cccnc67)c(N6CCC(CO)CC6)cc4O5)CC3)c21 (stereo not given in full) | 63 min | 2% | > 184 min | 86% | 2.78 nM | 39 min | – | – | –
6 | Cn1c(=O)n(C2CCC(=O)NC2=O)c2cccc(C#CCO[C@H]3CC[C@H](CN4CCC5(CC4)Cc4cc(NC(=O)c6cnn7cccnc67)c(N6CCC(F)CC6)cc4O5)CC3)c21 (stereo not given in full) | – | – | – | 85% | 6.38 nM | – | – | – | –
7 | Cn1c(=O)n(C2CCC(=O)NC2=O)c2cccc(C#CCOC3CCN(CCN4CCC5(CC4)Cc4cc(NC(=O)c6cnn7cccnc67)c(N6CCC(CO)CC6)cc4O5)CC3)c21 (stereo not given) | > 184 min | – | 88 min | 88% | 2.18 nM | 23 min | 2 min | 88 min | –
8 | Cn1c(=O)n(C2CCC(=O)NC2=O)c2cccc(C#CCO[C@H]3CC[C@H](CN4CCC5(CCc6cc(NC(=O)c7cnn8cccnc78)c(N7CCC(CO)CC7)cc6O5)CC4)CC3)c21 (stereo not given in full) | – | – | – | 46% | 8.48 nM | – | – | – | –
9 | Cc1cnc2c(C(=O)Nc3cc4c(cc3N3CCC(CO)CC3)OC3(CCN(C[C@H]5CC[C@H](OCC#Cc6cccc7c6n(C)c(=O)n7C6CCC(=O)NC6=O)CC5)CC3)C4)cnn2c1 (stereo not given in full) | > 184 min | – | > 184 min | 87% | 1.52 nM | > 184 min | – | – | 17%
10 | Cn1c(=O)n(C2CCC(=O)NC2=O)c2cccc(C#CCO[C@H]3CC[C@H](CN4CCC5(CC4)Oc4cc(N6CCC(CO)CC6)c(NC(=O)c6cnn7cccnc67)cc4C5=O)CC3)c21 (stereo not given in full) | – | – | – | 20% | 1000 nM | – | – | – | –
11 | Cn1c(=O)n(C2CCC(=O)NC2=O)c2cccc(C#CCO[C@H]3CC[C@H](CN4CCC5(CC4)Oc4cc(NC(=O)c6cnn7cccnc67)c(N6CCC(CO)CC6)cc4O5)CC3)c21 (stereo not given in full) | – | – | – | 78% | 10.4 nM | – | – | – | –
12 | Cn1c(=O)n(C2CCC(=O)NC2=O)c2cccc(C#CCOC3CCN(CC(=O)N4CCC5(CC4)Cc4cc(NC(=O)c6cnn7cccnc67)c(N6CCC(CO)CC6)cc4O5)CC3)c21 (stereo not given) | 100 min | – | 12 min | – | 2.18 nM | 9 min | – | – | 8%
13 | Cn1c(=O)n(C2CCC(=O)NC2=O)c2cccc(C#CCO[C@H]3CC[C@@H](CN4CCC5(Cc6cc(NC(=O)c7cnn8cccnc78)c(N7CCC(CO)CC7)cc6O5)C4)CC3)c21 (stereo not given in full) | 33 min | 29% | 35 min | 90% | 7.79 nM | 31 min | – | – | –
14 | Cn1c(=O)n(C2CCC(=O)NC2=O)c2cccc(C#CCO[C@H]3CC[C@@](F)(CN4CCC5(CC4)Cc4cc(NC(=O)c6cnn7cccnc67)c(N6CCC(CO)CC6)cc4O5)CC3)c21 (stereo not given in full) | 16 min | 8% | 1 min | 91% | 14.8 nM | 7 min | – | – | –
15 | Cn1c(=O)n(C2CCC(=O)NC2=O)c2cccc(C#CCO[C@H]3CC[C@H](CN4CCC5(Cc6cc(NC(=O)c7cnn8cccnc78)c(N7CCC(CO)CC7)cc6O5)C4)CC3)c21 (stereo not given in full) | > 184 min | 1% | > 184 min | 84% | 2 nM | 100 min | – | – | –
16 | Cn1c(=O)n(C2CCC(=O)NC2=O)c2cccc(C#CCO[C@H]3CC[C@H](CN4CCC5(CC4)Cc4cc(NC(=O)c6cnn7cccnc67)c(OCCC(C)(C)O)cc4O5)CC3)c21 (stereo not given in full) | – | – | – | 49% | 9.37 nM | – | – | – | –
17 | Cn1c(=O)n(C2CCC(=O)NC2=O)c2cccc(C#CCO[C@H]3CC[C@H](CN4CCC5(CC4)Cc4cc(NC(=O)c6cnn7cccnc67)c(N6CCC(CO)CC6)cc4C5)CC3)c21 (stereo not given in full) | – | – | – | 78% | 2.77 nM | – | – | – | 46%
18 | Cn1c(=O)n(C2CCC(=O)NC2=O)c2cccc(C#CCO[C@H]3CC[C@H](CN4CCC5(CC4)Cc4cc(NC(=O)c6cnn7cccnc67)c(OC(F)F)cc4O5)CC3)c21 (stereo not given in full) | – | – | – | 83% | 13 nM | – | – | – | –
19 | Cn1c(=O)n(C2CCC(=O)NC2=O)c2cccc(C#CCO[C@H]3CC[C@H](CN4CCC5(CC4)Cc4cc(NC(=O)c6cnn7cc(CO)cnc67)c(N6CCC(CO)CC6)cc4O5)CC3)c21 (stereo not given in full) | 78 min | 4% | > 184 min | 90% | 3.32 nM | > 184 min | > 184 min | > 184 min | –
20 | Cn1c(=O)n(C2CCC(=O)NC2=O)c2cccc(C#CCO[C@H]3CC[C@@H](CN4CCC5(CC4)Cc4cc(NC(=O)c6cnn7cccnc67)c(N6CCC(CO)CC6)cc4O5)CC3)c21 (stereo not given in full) | 119 min | 34% | 1 min | 89% | 3.44 nM | 49 min | 11 min | 88 min | –
21 | Cn1c(=O)n(C2CCC(=O)NC2=O)c2cccc(C#CCO[C@H]3CC[C@](F)(CN4CCC5(CC4)Cc4cc(NC(=O)c6cnn7cccnc67)c(N6CCC(CO)CC6)cc4O5)CC3)c21 (stereo not given in full) | > 184 min | – | > 184 min | 88% | – | > 184 min | – | – | 8%
22 | Cc1cc(-c2nc(C(=O)Nc3cc4c(cc3N3CCC(CO)CC3)OC3(CCN(C[C@H]5CC[C@H](OCC#Cc6cccc7c6n(C)c(=O)n7C6CCC(=O)NC6=O)CC5)CC3)C4)co2)ccn1 (stereo not given in full) | 101 min | 12% | > 184 min | 85% | 6.02 nM | 69 min | – | – | –
23 | Cn1c(=O)n(C2CCC(=O)NC2=O)c2cccc(C#CCN3CCN(CC(=O)N4CCC5(CC4)Cc4cc(NC(=O)c6cnn7cccnc67)c(N6CCC(CO)CC6)cc4O5)CC3)c21 (stereo not given) | 84 min | – | 73 min | – | 2.76 nM | 3 min | – | – | 18%
24 | COCC1CCN(c2cc3c(cc2NC(=O)c2cnn4cccnc24)CC2(CCN(C[C@H]4CC[C@H](OCC#Cc5cccc6c5n(C)c(=O)n6C5CCC(=O)NC5=O)CC4)CC2)O3)CC1 (stereo not given in full) | – | – | – | 62% | 3.9 nM | – | – | – | –
